# Reference: patent US20060270664A1, “Fluorescent fused-ring triazoles that inhibit cell proliferation and uses thereof” (priority 2004, published 2006)
# Key:
# human CX-1 colon cells = experiment: Growth inhibition of tumor cells in culture, Coulter Counter cell count after 5 days; type: cell-based; settings: 120 h, read-out: IC50 of fused ring triazole (concentration inhibiting growth of cell line by 50%)
# Experimental: (§1) Experiments were performed in accordance with the procedure described by Yurkow and Laskin (Cancer Chemother. Pharmacol. 1991 27:315-319). In these experiments, tumor cells were maintained in culture in growth medium consisting of Dulbecco's modified Eagle's medium (DMEM) supplemented with 10% fetal bovine. Tumor cells were plated at low density (5000 cells/well) in 6-well tissue culture dishes and allowed to adhere overnight. The medium was then replaced with phenol red-free DMEM supplemented with increasing concentrations of the compounds, with zero concentration of compound serving as the control. Six concentrations and a control were used for each inhibitor, and each concentration was tested in triplicate. After 5 days, cells were removed from the dishes and enumerated using a Coulter Counter (Coulter Electronics, Inc.). The controls and treated samples at each concentration were averaged. Data are presented as the percentage of control growth at each concentration of the compound, plus and minus the standard error. The IC50 for growth inhibition was the concentration of each compound that inhibited growth by 50%. These are depicted in Table 1.
# [1] = test system: human HeLa cervical carcinoma; experiment: as above; type: cell-based; settings: 120 h, read-out: IC50 of fused ring triazole (concentration inhibiting growth of cell line by 50%)
# Experimental: as §1
# mouse B16 melanoma = experiment: as above; type: cell-based; settings: 120 h, read-out: IC50 of fused ring triazole (concentration inhibiting growth of cell line by 50%)
# Experimental: as §1
# [2] = test system: mouse PAM 212 keratinocytes; experiment: as above; type: cell-based; settings: PAM212, 120 h, read-out: IC50 of fused ring triazole (concentration inhibiting growth of cell line by 50%)
# Experimental: as §1
# [3] = Fluorescence excitation and emission spectra (Perkin-Elmer LS-5B Luminescence Spectrometer); type: physicochemical; settings: 10 micromolar solution
# Experimental: Excitation and emission spectra of a 10 micromolar solution of compounds IIa and IIb were determined using a Perkin-Elmer LS-5B Luminescence Spectrometer.
Emission peak [3] [nm],Excitation peaks [3] [nm],Structure (SMILES),IC50 (human CX-1 colon cells) [µM],IC50 [1] [µM],IC50 (mouse B16 melanoma) [µM],IC50 [2] [µM]
358,–,"C1=Nn2c(nnc2-c2ccncc2)S/C1=C\c1ccccc1 [Compound IIa, 3-(4-pyridyl)-7-(phenylmethylene)-s-triazolo[3,4-b] [1,3,4]-thiadiazine]",17,4,9,10
320,249,"C1=Nn2c(nnc2-c2ccccn2)S/C1=C\c1ccccc1 [Compound IIb, 3-(2-pyridyl)-7-(phenylmethylene)-s-triazolo[3,4-b] [1,3,4]-thiadiazine]",30,9,15,18
–,–,"C1=Nn2c(nnc2-c2cccs2)S/C1=C\c1ccccc1 [Compound IId, 3-(2-thienyl)-7-(phenylmethylene)-s-triazolo[3,4-b] [1,3,4]-thiadiazine]",20,28,23,18
